Assay results: patent US20100081679A1, “DIAMINOPYRIMIDINES AS FUNGICIDES” (Bayer CropScience AG, priority 2007, published 2010)
Marks after values point to notes of the source that are not given here. Values belong to the molecule of their own block, whether it stands above or below them.

Assay: logP determination via retention times, calibrated with unbranched alkan-2-ones
Type: physicochemical
Settings: for chromatographic logP: pH 2.3, read-out: logP (pH2.3)
[1] = method *: HPLC reversed-phase C18, 40° C., 0.1% aqueous formic acid and acetonitrile, linear gradient 10% to 95% acetonitrile
[2] = HPLC on reversed-phase C18, method *: 40° C., 0.1% aqueous formic acid and acetonitrile, linear gradient 10% to 95% acetonitrile
[3] = method *: HPLC reversed-phase C 18, temperature 40° C., mobile phase 0.1% aqueous formic acid and acetonitrile, linear gradient 10% to 95% acetonitrile
[4] = HPLC on reversed-phase C18, method *: 40° C., mobile phase 0.1% aqueous formic acid and acetonitrile, linear gradient 10% to 95% acetonitrile
[5] = HPLC reversed-phase C 18, EEC Directive 79/831 Annex V.A8, method *: 40° C., 0.1% aqueous formic acid and acetonitrile, linear gradient 10% to 95% acetonitrile
[6] = method *: HPLC, reversed-phase C 18, 40° C., mobile phase 0.1% aqueous formic acid and acetonitrile, linear gradient from 10% to 95% acetonitrile
[7] = HPLC on reversed-phase C18 column (EEC Directive 79/831 Annex V.A8), method *: 40° C., 0.1% aqueous formic acid and acetonitrile, linear gradient 10% to 95% acetonitrile
[8] = HPLC on reversed-phase C 18, EEC Directive 79/831 Annex V.A8, method *: 40° C., 0.1% aqueous formic acid and acetonitrile, linear gradient 10% to 95% acetonitrile
[9] = HPLC on reversed-phase C 18, method **: 43° C., 0.1% aqueous phosphoric acid and acetonitrile, linear gradient 10% to 95% acetonitrile
[10] = method **: HPLC reversed-phase C 18, 43° C., 0.1% aqueous phosphoric acid and acetonitrile, linear gradient 10% to 95% acetonitrile

SMILES: CC(C)NC(=O)Nc1ccc(Nc2ncc(Cl)c(NC3CC3)n2)cc1 [compound 632]
logP (method **: HPLC reversed-phase C 18, temperature 43° C., mobile phase 0.1% aqueous phosphoric acid and acetonitrile, linear gradient 10% to 95% acetonitrile): 1.32**

SMILES: CC(C)(C)Sc1ccc(Nc2ncc(Cl)c(NC3CC3)n2)cc1 [compound 152]
logP [2]: 3.73*

SMILES: FC(F)Sc1ccc(Nc2ncc(Cl)c(NC3CC3)n2)cc1 [compound 94]
logP [1]: 2.77*

SMILES: CCc1cccc(Nc2ncc(Cl)c(NC3CC3)n2)c1 [compound 634]
logP [3]: 2.35*

SMILES: CC(C)(C)C(=O)Nc1cccc(Nc2ncc(C(F)(F)F)c(NC3CC3)n2)c1 [compound 650]
logP [3]: 2.6*

SMILES: CCCCc1ccccc1Nc1ncc(Cl)c(NC2CC2)n1 [compound 911]
logP [2]: 2.3*

SMILES: C#Cc1cccc(Nc2ncc(C(F)(F)F)c(NC3CC3)n2)c1 [compound 627]
logP [3]: 3.36*

SMILES: C=CCS(=O)(=O)c1ccc(Nc2ncc(Cl)c(NC3CC3)n2)cc1 [Example 61]
logP [1]: 2.18*

SMILES: O=C(Nc1ccc(Nc2ncc(Cl)c(NCC3CC3)n2)cc1)C(F)(F)F [compound 672]
logP [2]: 2.02*

SMILES: COC(=O)c1cc(Nc2ncc(Cl)c(NC3CC3)n2)ccc1O [compound 993]
logP [6]: 1.81*

SMILES: O=S(=O)(Cc1cccc(Nc2ncc(Cl)c(NC3CC3)n2)c1)NC1CC1 [compound 372]
logP [1]: 1.59*

SMILES: COc1cc(Nc2ncc(Cl)c(NC3(c4ccccc4Cl)CC3)n2)cc(OC)c1OC [compound 320]
logP [4]: 3.06*

SMILES: CCOC(=O)Nc1ccc(Nc2ncc(Cl)c(NC3CC3)n2)cc1 [compound 977]
logP [2]: 1.63*

SMILES: CSc1cccc(Nc2ncc(C(F)(F)F)c(NC3CC3)n2)c1 [compound 266]
logP (HPLC on reversed-phase C18 column (EEC Directive 79/831 Annex V.A8), method **: 43° C., 0.1% aqueous phosphoric acid and acetonitrile, linear gradient 10% to 95% acetonitrile): 3.49**
logP [7]: 3.29*;

SMILES: CCN(CC)C(=O)c1cccc(Nc2ncc(Cl)c(NC3CC3)n2)c1 [compound 701]
logP [2]: 1.86*

SMILES: FC(F)Oc1ccc(Nc2ncc(Cl)c(NC3CC3)n2)cc1 [compound 288]
logP [4]: 2.11*

SMILES: O=C1COCCN1c1ccc(Nc2ncc(Cl)c(NC3CC3)n2)cc1 [compound 495]
logP [8]: 1.17*

SMILES: CCOC(=O)Nc1ccc(Nc2ncc(Cl)c(NCC3CC3)n2)cc1O [compound 542]
logP [8]: 1.68*

SMILES: Clc1cnc(Nc2cccc(CBr)c2)nc1NC1CC1 [compound 1023]
logP (method **: HPLC, reversed-phase C 18, 43° C., mobile phase 0.1% aqueous phosphoric acid and acetonitrile, linear gradient from 10% to 95% acetonitrile): 2.31**

SMILES: CCN(CC)C(=O)c1cccc(Nc2ncc(C(F)(F)F)c(NC3CC3)n2)c1 [compound 1049]
logP [6]: 2.71*

SMILES: O=S(=O)(c1ccc(Nc2ncc(Cl)c(NC3CC3)n2)cc1)N1CCCC1 [compound 307]
logP (HPLC on reversed-phase C18, method **: 43° C., mobile phase 0.1% aqueous phosphoric acid and acetonitrile, linear gradient 10% to 95% acetonitrile): 2.52**

SMILES: CCC(C)Sc1cccc(Nc2ncc(Cl)c(NC3CC3)n2)c1 (stereo not shown) [compound 665]
logP [2]: 3.69*

SMILES: CN(c1nc(Nc2ccccc2)ncc1Br)C1CC1 [compound 928]
logP [9]: 1.7**

SMILES: Clc1cccc(Nc2ncc(Cl)c(NC3(c4ccccc4Cl)CC3)n2)c1 [compound 319]
logP [4]: 5.18*

SMILES: Clc1cnc(Nc2ccccc2Br)nc1NC1CC1 [compound 871]
logP [2]: 2.7*

SMILES: Fc1ccc(Nc2ncc(Cl)c(NC3CC3)n2)cc1F [compound 321]
logP [4]: 2.59*

SMILES: COc1cc(Nc2ncc(Cl)c(NCC3CC3)n2)cc(OC)c1 [compound 11]
logP [10]: 2.09**

SMILES: FC(F)Sc1ccc(Nc2ncc(Cl)c(NCC3CC3)n2)cc1 [compound 559]
logP [8]: 2.91*

SMILES: CC(Nc1nc(Cl)ncc1Cl)C1CC1 (stereo not shown) [2,5-dichloro-N-(1-cyclopropylethyl)pyrimidine-4-amine]
chromatographic logP: 2.97

SMILES: O=S(=O)(Cc1cccc(Nc2ncc(Cl)c(NC3CC3)n2)c1)N1CCOCC1 [compound 261]
logP [7]: 1.62*

SMILES: N#CCC(=O)c1ccc(Nc2ncc(Br)c(NC3CC3)n2)cc1 [compound 759]
logP [2]: 2.16*

SMILES: CCOC(=O)Cc1ccc(Nc2ncc(Br)c(NC3CC3)n2)cc1 [compound 758]
logP [2]: 2.06*

SMILES: Clc1cnc(Nc2ccccc2)nc1Cl [4,5-Dichloro-N-phenylpyrimidine-2-amine]
chromatographic logP: 3.52

SMILES: FC(F)(F)c1ccc(Nc2ncc(Cl)c(NC3CC3)n2)cc1 [compound 277]
logP [4]: 3.14*

SMILES: Cc1ccc(Nc2ncc(Br)c(NC3CC3)n2)cc1CC#N [compound 820]
logP [5]: 1.85*

SMILES: CC(C)(C)C(=O)Cc1ccc(Nc2ncc(C(F)(F)F)c(NC3CC3)n2)cc1 [compound 655]
logP [3]: 3.33*

SMILES: Clc1cnc(Nc2ccccc2)nc1NC1CC1 [Example 70]
logP [1]: 1.28*

SMILES: Clc1cc(Cl)cc(Nc2ncc(Cl)c(NC3CC3)n2)c1 [compound 291]
logP [4]: 4.04*

SMILES: Clc1ncc(Cl)c(NCC2CC2)n1 [2,5-dichloro-N-(cyclopropylmethyl)pyrimidine-4-amine]
chromatographic logP: 2.51

SMILES: COCC(C)Oc1ccc(Nc2ncc(Cl)c(NC3CC3)n2)cc1 (stereo not shown) [compound 188]
logP [7]: 1.73*

SMILES: CC(=O)c1ccc(Nc2ncc(Cl)c(NC3CC3)n2)cc1 [compound 44]
logP [1]: 1.99*

SMILES: Clc1cnc(Nc2ccc3[nH]ccc3c2)nc1NC1CC1 [Example 71]
logP [1]: 1.47*

SMILES: CC(=O)c1cc(Nc2ncc(Br)c(NC3CC3)n2)ccc1O [compound 763]
logP [2]: 1.75*

SMILES: N#Cc1ccccc1Nc1ncc(Cl)c(NC2CC2)n1 [compound 881]
logP [2]: 0.85*

The next lines start with the values.

logP [1]: 1.83*
SMILES: Brc1cnc(Nc2ccc3c(c2)OCO3)nc1NCC1CC1 [compound 418]

logP [2]: 1.75*
SMILES: Clc1cnc(Nc2ccc3c(c2)OCO3)nc1NCC1CC1 [compound 695]

logP [3]: 2.05*
SMILES: COc1cc(Nc2ncc(Br)c(NC3CC3)n2)ccc1F [compound 568]

logP [4]: 2.83*
SMILES: CCCOc1cccc(Nc2ncc(Br)c(NC3CC3)n2)c1 [compound 336]

logP [4]: 2.41*
SMILES: C#Cc1cccc(Nc2ncc(Br)c(NC3CC3)n2)c1 [compound 340]

logP [5]: 2.71*
SMILES: CC(C)c1cccc(Nc2ncc(Cl)c(NCC3CC3)n2)c1 [compound 777]

logP [2]: 2.82*
SMILES: OC(c1cccc(Nc2ncc(C(F)(F)F)c(NCC3CC3)n2)c1)C(F)(F)F (stereo not shown) [compound 667]

logP [8]: 2.51*
SMILES: CC(=O)c1cc(Nc2ncc(Cl)c(NCC3CC3)n2)ccc1Cl [compound 540]

logP [2]: 1.73*
SMILES: COc1ccc(Nc2ncc(Cl)c(NCC3CC3)n2)cc1 [compound 669]

logP [8]: 3.1*
SMILES: FC(F)C(F)(F)Oc1cccc(Nc2ncc(Br)c(NCC3CC3)n2)c1 [compound 493]

logP [9]: 2.71**
SMILES: COCc1cccc(Nc2ncc(Cl)c(N(C)CC3CC3)n2)c1 [compound 965]

logP [2]: 2.08*
SMILES: CN(C)S(=O)(=O)Oc1ccc(Nc2ncc(Cl)c(NC3CC3)n2)cc1 [Example 102]

logP [7]: 2.77*
SMILES: CC(C)(C)C(=O)Nc1cccc(Nc2ncc(C(F)(F)F)c(NCC3CC3)n2)c1 [compound 205]

logP [1]: 1.39*
SMILES: CNC(=O)c1cccc(Nc2ncc(Br)c(NC3CC3)n2)c1 [compound 383]

logP [2]: 2.07*
SMILES: Cc1cccc(Nc2ncc(Br)c(NC3CC3)n2)c1 [compound 730]

logP [7]: 2.48*
SMILES: CN(C)S(=O)(=O)c1cccc(Nc2ncc(Br)c(NCC3CC3)n2)c1 [compound 192]

logP [6]: 1.46*
SMILES: COCCN(C)C(=O)c1cccc(Nc2ncc(Cl)c(NC3CC3)n2)c1 [compound 1064]

logP [3]: 3.15*
SMILES: CSc1ccc(Nc2ncc(Cl)c(NCC3CC3)n2)cc1Cl [compound 626]

logP [8]: 1.68*
SMILES: CC1COC(=O)N1c1cccc(Nc2ncc(Br)c(NC3CC3)n2)c1 (stereo not shown) [compound 533]

logP [2]: 1.44*
SMILES: CS(=O)(=O)Nc1ccc(Nc2ncc(Br)c(NC3CC3)n2)cc1 [compound 756]

logP [1]: 1.46*
SMILES: Cc1ccc(Nc2ncc(Br)c(NC3CC3)n2)cc1O [compound 366]

logP [5]: 1.75*
SMILES: N#CCc1cccc(Nc2ncc(Br)c(NC3CC3)n2)c1 [compound 794]

logP [8]: 2.67*
SMILES: Clc1ccc(Nc2ncc(Br)c(NCC3CC3)n2)cc1 [compound 474]

logP [1]: 2.06*
SMILES: CC(C)(C)C(=O)Nc1cccc(Nc2ncc(Br)c(NCC3CC3)n2)c1 [compound 451]

logP [1]: 1.53*
SMILES: CNC(=O)c1cccc(Nc2ncc(Br)c(NCC3CC3)n2)c1 [compound 427]

logP [8]: 1.47*
SMILES: OCc1cccc(Nc2ncc(Cl)c(NCC3CC3)n2)c1 [compound 560]

logP [5]: 1.96*
SMILES: COC(C)c1cccc(Nc2ncc(Cl)c(NC3CC3)n2)c1 (stereo not shown) [compound 806]

logP [2]: 2.92*
SMILES: CCSc1cccc(Nc2ncc(Br)c(NC3CC3)n2)c1 [compound 708]

logP [10]: 2.62**
SMILES: CC(C)c1ccc(Nc2ncc(Cl)c(NCC3CC3)n2)cc1 [Example 54]

logP [2]: 1.59*
SMILES: CC[S+]([O-])c1cccc(Nc2ncc(Br)c(NC3CC3)n2)c1 (racemic) [compound 958]

logP [1]: 1.38*
SMILES: O=C1CCC(=O)N1c1cccc(Nc2ncc(Br)c(NC3CC3)n2)c1 [compound 447]

logP [8]: 1.99*
SMILES: CC(C)(CF)C(=O)Nc1cccc(Nc2ncc(Br)c(NCC3CC3)n2)c1 [compound 467]

logP [5]: 1.97*
SMILES: COc1cccc(Nc2ncc(I)c(NC3CC3)n2)c1 [compound 855]

logP [10]: 2.7**
SMILES: Clc1cccc(Nc2ncc(Cl)c(NCC3CC3)n2)c1 [compound 9]
